# Tested on: K. pneum. 1082 E
# Test: Minimum inhibiting concentration, serial dilution test in the microtiter system
# Type: cell-based
# Conditions: Klebsiella pneumoniae, 37° C., 18 to 20 hours
# Description: (§1) These tests were performed using the serial dilution test in the microtiter system. The effect of the test compound on bacteriostasis was tested in a liquid medium at the following concentrations: 128, 64, 32, 16, 8, 4, 2, 1, 0.5, 0.25, 0.12 and 0.06 μgm/ml. The nutrient medium consisted of 10 gm of peptone, 8 gm of meat extract oxoid, 3 gm of sodium chloride, and 2 gm of sec. sodium phosphate diluted with distilled water to […] (pH 7.2-7.4). The age of the primary cultures was approximately 20 hours. The standardization of the bacteria suspension was effected using a photometer according to the method of Eppendorf (test tube .phi. 14 mm, filter 546 nm), using for comparison a barium sulfate suspension formed by the addition of 3.0 ml of 1% barium chloride solution to 97 ml of 1% sulfuric acid. After standardization, the test microorganisms were further diluted to a concentration of 1:1500, using a sodium chloride solution.
# (§2) 16 mgm of the particular test compound were put into a 10 ml measuring flask, and the flask was subsequently filled to the mark with the solvent. The further dilution series was standardized with distilled water or the appropriate solvent.
# (§3) The depressions of the microtiter plates were filled with 0.2 ml of nutrient medium. 0.01 ml of the appropriate test compound solution was then added, followed by inoculation with 0.1 ml (1 drop) of the standardized bacteria suspension. The bacteria were incubated at 37° C. for 18 to 20 hours. Control tests using only the solvent were carried out simultaneously.
# (§4) The readings were made macroscopically to determine the minimum inhibitory concentration (the lowest still bacteriostatically effective concentration).
row,Compound,MIC
1,CO[C@@]1(NC(=O)C(NC(=O)Nc2cnc(NCc3ccc(S(N)(=O)=O)s3)nc2O)c2ccccc2)C(=O)N2C(C(=O)O)=C(CSc3nnnn3C)CS[C@@H]21 (some centres unmarked) [Compound 11],0.25 µg/mL
2,Nc1nc(C(NC(=O)Nc2cnc(NCc3ccc(S(N)(=O)=O)s3)nc2O)C(=O)N[C@@H]2C(=O)N3C(C(=O)O)=C(CSc4nnnn4CCO)CS[C@H]23)cs1 (some centres unmarked) [Compound 6],16 µg/mL

# Tested on: Pseud. BC 19
# Test: as above
# Type: cell-based
# Conditions: Pseudomonas aeruginosa, 37° C., 18 to 20 hours
# Description: as §1, §2, §3, §4
# (§5) Staphylococcus aureus SG 511, Escherichia coli ATCC 11 775, Pseudomonas aeruginosa hamburgensis and Pseudomonas aeruginosa BC 19, Serratia marcescens ATCC 13 800, Klebsiella pneumoniae ATCC 10031 and BC 6, Proteus mirabilis BC 17, Proteus rettgeri BC 7, Enterobacter Cloaceae ATCC 13047 and E. coli R+TEM (β-lactamase carrier).
row,Compound,MIC
1,CO[C@@]1(NC(=O)C(NC(=O)Nc2cnc(NCc3ccc(S(N)(=O)=O)s3)nc2O)c2ccccc2)C(=O)N2C(C(=O)O)=C(CSc3nnnn3C)CS[C@@H]21 (some centres unmarked) [Compound 11],8 µg/mL
2,Nc1nc(C(NC(=O)Nc2cnc(NCc3ccc(S(N)(=O)=O)s3)nc2O)C(=O)N[C@@H]2C(=O)N3C(C(=O)O)=C(CSc4nnnn4CCO)CS[C@H]23)cs1 (some centres unmarked) [Compound 6],8 µg/mL

# Tested on: Serr. marcesc. ATCC 13880
# Test: as above
# Type: cell-based
# Conditions: Serratia marcescens, ATCC13880, 37° C., 18 to 20 hours
# Description: as §1, §2, §3, §4, §5
row,Compound,MIC
1,CO[C@@]1(NC(=O)C(NC(=O)Nc2cnc(NCc3ccc(S(N)(=O)=O)s3)nc2O)c2ccccc2)C(=O)N2C(C(=O)O)=C(CSc3nnnn3C)CS[C@@H]21 (some centres unmarked) [Compound 11],0.25 µg/mL
2,Nc1nc(C(NC(=O)Nc2cnc(NCc3ccc(S(N)(=O)=O)s3)nc2O)C(=O)N[C@@H]2C(=O)N3C(C(=O)O)=C(CSc4nnnn4CCO)CS[C@H]23)cs1 (some centres unmarked) [Compound 6],0.06 µg/mL

# Tested on: E. coli R + TEM
# Test: as above
# Type: cell-based
# Conditions: Escherichia coli, read-out: Minimum inhibiting concentration (MIC)
# Description: as §1, §2, §3, §4, §5
row,Compound,MIC
1,CO[C@@]1(NC(=O)C(NC(=O)Nc2cnc(NCc3ccc(S(N)(=O)=O)s3)nc2O)c2ccccc2)C(=O)N2C(C(=O)O)=C(CSc3nnnn3C)CS[C@@H]21 (some centres unmarked) [Compound 11],0.25 µg/mL
2,Nc1nc(C(NC(=O)Nc2cnc(NCc3ccc(S(N)(=O)=O)s3)nc2O)C(=O)N[C@@H]2C(=O)N3C(C(=O)O)=C(CSc4nnnn4CCO)CS[C@H]23)cs1 (some centres unmarked) [Compound 6],0.5 µg/mL

# Tested on: E. coli ATCC 11775
# Test: as above
# Type: cell-based
# Conditions: Escherichia coli, ATCC11775, 37° C., 18 to 20 hours
# Description: as §1, §2, §3, §4, §5
row,Compound,MIC
1,CO[C@@]1(NC(=O)C(NC(=O)Nc2cnc(NCc3ccc(S(N)(=O)=O)s3)nc2O)c2ccccc2)C(=O)N2C(C(=O)O)=C(CSc3nnnn3C)CS[C@@H]21 (some centres unmarked) [Compound 11],0.12 µg/mL
2,Nc1nc(C(NC(=O)Nc2cnc(NCc3ccc(S(N)(=O)=O)s3)nc2O)C(=O)N[C@@H]2C(=O)N3C(C(=O)O)=C(CSc4nnnn4CCO)CS[C@H]23)cs1 (some centres unmarked) [Compound 6],< 0.03 µg/mL

# Tested on: Staph. aureus SG 511
# Test: as above
# Type: cell-based
# Conditions: Staphylococcus aureus, SG511, 37° C., 18 to 20 hours
# Description: as §1, §2, §3, §4, §5
row,Compound,MIC
1,CO[C@@]1(NC(=O)C(NC(=O)Nc2cnc(NCc3ccc(S(N)(=O)=O)s3)nc2O)c2ccccc2)C(=O)N2C(C(=O)O)=C(CSc3nnnn3C)CS[C@@H]21 (some centres unmarked) [Compound 11],1 µg/mL
2,Nc1nc(C(NC(=O)Nc2cnc(NCc3ccc(S(N)(=O)=O)s3)nc2O)C(=O)N[C@@H]2C(=O)N3C(C(=O)O)=C(CSc4nnnn4CCO)CS[C@H]23)cs1 (some centres unmarked) [Compound 6],1 µg/mL

# Tested on: Kl. pneum. ATCC 10031
# Test: as above
# Type: cell-based
# Conditions: Klebsiella pneumoniae, ATCC10031, 37° C., 18 to 20 hours
# Description: as §1, §2, §3, §4, §5
row,Compound,MIC
1,CO[C@@]1(NC(=O)C(NC(=O)Nc2cnc(NCc3ccc(S(N)(=O)=O)s3)nc2O)c2ccccc2)C(=O)N2C(C(=O)O)=C(CSc3nnnn3C)CS[C@@H]21 (some centres unmarked) [Compound 11],0.25 µg/mL
2,Nc1nc(C(NC(=O)Nc2cnc(NCc3ccc(S(N)(=O)=O)s3)nc2O)C(=O)N[C@@H]2C(=O)N3C(C(=O)O)=C(CSc4nnnn4CCO)CS[C@H]23)cs1 (some centres unmarked) [Compound 6],0.06 µg/mL

# Tested on: Kl. pneum. BC 6
# Test: as above
# Type: cell-based
# Conditions: Klebsiella pneumoniae, 37° C., 18 to 20 hours
# Description: as §1, §2, §3, §4, §5
row,Compound,MIC
1,CO[C@@]1(NC(=O)C(NC(=O)Nc2cnc(NCc3ccc(S(N)(=O)=O)s3)nc2O)c2ccccc2)C(=O)N2C(C(=O)O)=C(CSc3nnnn3C)CS[C@@H]21 (some centres unmarked) [Compound 11],0.25 µg/mL
2,Nc1nc(C(NC(=O)Nc2cnc(NCc3ccc(S(N)(=O)=O)s3)nc2O)C(=O)N[C@@H]2C(=O)N3C(C(=O)O)=C(CSc4nnnn4CCO)CS[C@H]23)cs1 (some centres unmarked) [Compound 6],0.03 µg/mL

# Tested on: Prot. mirab. BC 17
# Test: as above
# Type: cell-based
# Conditions: Proteus mirabilis, 37° C., 18 to 20 hours
# Description: as §1, §2, §3, §4, §5
row,Compound,MIC
1,CO[C@@]1(NC(=O)C(NC(=O)Nc2cnc(NCc3ccc(S(N)(=O)=O)s3)nc2O)c2ccccc2)C(=O)N2C(C(=O)O)=C(CSc3nnnn3C)CS[C@@H]21 (some centres unmarked) [Compound 11],0.06 µg/mL
2,Nc1nc(C(NC(=O)Nc2cnc(NCc3ccc(S(N)(=O)=O)s3)nc2O)C(=O)N[C@@H]2C(=O)N3C(C(=O)O)=C(CSc4nnnn4CCO)CS[C@H]23)cs1 (some centres unmarked) [Compound 6],0.03 µg/mL

# Tested on: Ent. cloac. ATCC 13047
# Test: as above
# Type: cell-based, Enterobacter Cloaceae
# Conditions: Enterobacter, ATCC13047, 37° C., 18 to 20 hours
# Description: as §1, §2, §3, §4, §5
row,Compound,MIC
1,CO[C@@]1(NC(=O)C(NC(=O)Nc2cnc(NCc3ccc(S(N)(=O)=O)s3)nc2O)c2ccccc2)C(=O)N2C(C(=O)O)=C(CSc3nnnn3C)CS[C@@H]21 (some centres unmarked) [Compound 11],0.5 µg/mL
2,Nc1nc(C(NC(=O)Nc2cnc(NCc3ccc(S(N)(=O)=O)s3)nc2O)C(=O)N[C@@H]2C(=O)N3C(C(=O)O)=C(CSc4nnnn4CCO)CS[C@H]23)cs1 (some centres unmarked) [Compound 6],0.06 µg/mL

# Tested on: Pseud. Hbg.
# Test: as above
# Type: cell-based, Pseudomonas aeruginosa hamburgensis
# Conditions: Pseudomonas aeruginosa, 37° C., 18 to 20 hours
# Description: as §1, §2, §3, §4, §5
row,Compound,MIC
1,CO[C@@]1(NC(=O)C(NC(=O)Nc2cnc(NCc3ccc(S(N)(=O)=O)s3)nc2O)c2ccccc2)C(=O)N2C(C(=O)O)=C(CSc3nnnn3C)CS[C@@H]21 (some centres unmarked) [Compound 11],16 µg/mL
2,Nc1nc(C(NC(=O)Nc2cnc(NCc3ccc(S(N)(=O)=O)s3)nc2O)C(=O)N[C@@H]2C(=O)N3C(C(=O)O)=C(CSc4nnnn4CCO)CS[C@H]23)cs1 (some centres unmarked) [Compound 6],16 µg/mL

# Tested on: E. coli ATCC 11775
# Test: In vivo activity against experimental E. coli infection in mice
# Parameters: species or system E. coli in female mice of the NMRI strain
# Conditions: Escherichia coli, ATCC11775, sc, 168 h; s.c. administration once, 1 hour after i.p. infection; dose at which 50% of the animals survive; 7 days
# Description: A few compounds of the invention and cefuroxim were tested in vivo against experimental infections in mice. E. coli ATCC 11775 was used as the pathogenic bacteria. An intraperitoneal infection was induced with 0.2 ml of a 5% mucin suspension of the bacteria. This corresponds to approximately 1.4×10^6 E. coli bacteria per mouse. Female mice of the NMRI strain were divided into groups of 10 animals, of which 2 groups remained untreated while the remaining groups were treated with various doses of the particular cephalosporin according to the invention for the purpose of determining the ED50 (dose at which 50% of the animals survive). The treatment was applied once (1 hour after infection). The observation period was 7 days. The results of these tests are shown in Table III below, where the numbering of the compounds again corresponds to that used in Table I.
row,Compound,ED50
1,CO[C@@]1(NC(=O)C(NC(=O)Nc2cnc(NCc3ccc(S(N)(=O)=O)s3)nc2O)c2ccccc2)C(=O)N2C(C(=O)O)=C(CSc3nnnn3C)CS[C@@H]21 (some centres unmarked) [Compound 11],~5 mg/kg
2,Nc1nc(C(NC(=O)Nc2cnc(NCc3ccc(S(N)(=O)=O)s3)nc2O)C(=O)N[C@@H]2C(=O)N3C(C(=O)O)=C(CSc4nnnn4CCO)CS[C@H]23)cs1 (some centres unmarked) [Compound 6],< 0.5 mg/kg

# Tested on: Prot. rettg.
# Test: Minimum inhibiting concentration, serial dilution test in the microtiter system
# Type: cell-based, Proteus rettgeri
# Conditions: Providencia rettgeri, 37° C., 18 to 20 hours
# Description: as §1, §2, §3, §4, §5
row,Compound,MIC
1,CO[C@@]1(NC(=O)C(NC(=O)Nc2cnc(NCc3ccc(S(N)(=O)=O)s3)nc2O)c2ccccc2)C(=O)N2C(C(=O)O)=C(CSc3nnnn3C)CS[C@@H]21 (some centres unmarked) [Compound 11],0.5 µg/mL
2,Nc1nc(C(NC(=O)Nc2cnc(NCc3ccc(S(N)(=O)=O)s3)nc2O)C(=O)N[C@@H]2C(=O)N3C(C(=O)O)=C(CSc4nnnn4CCO)CS[C@H]23)cs1 (some centres unmarked) [Compound 6],0.06 µg/mL

# Reference: patent US4364944A, “Cephalosporins” (Dr. Karl Thomae Gesellschaft mit beschrankter Haftung, priority 1980, dated 1982)
